According to ChEMBL document CHEMBL3526122, “Identification of UDP-glucuronosyltransferases responsible for the glucuronidation of darexaban, an oral factor Xa inhibitor, in human liver and intestine” (Drug Metab Dispos, 2012):

Columns and labels:
Type in all cases: ADME
[1] = molecular target: T1, UDP-glucuronosyltransferase 1A9 (Homo sapiens, UniProt O60656); assay: Activity of human recombinant UGT1A9 expressed in baculovirus-infected insect cells assessed as unbound intrinsic clearance for enzyme-mediated glucuronidation per mg of protein after 5 mins by Michaelis-Menten plot analysis in presence of UDPGA and 2% fatty acid free BSA
T1 sequence (O60656 whole entry): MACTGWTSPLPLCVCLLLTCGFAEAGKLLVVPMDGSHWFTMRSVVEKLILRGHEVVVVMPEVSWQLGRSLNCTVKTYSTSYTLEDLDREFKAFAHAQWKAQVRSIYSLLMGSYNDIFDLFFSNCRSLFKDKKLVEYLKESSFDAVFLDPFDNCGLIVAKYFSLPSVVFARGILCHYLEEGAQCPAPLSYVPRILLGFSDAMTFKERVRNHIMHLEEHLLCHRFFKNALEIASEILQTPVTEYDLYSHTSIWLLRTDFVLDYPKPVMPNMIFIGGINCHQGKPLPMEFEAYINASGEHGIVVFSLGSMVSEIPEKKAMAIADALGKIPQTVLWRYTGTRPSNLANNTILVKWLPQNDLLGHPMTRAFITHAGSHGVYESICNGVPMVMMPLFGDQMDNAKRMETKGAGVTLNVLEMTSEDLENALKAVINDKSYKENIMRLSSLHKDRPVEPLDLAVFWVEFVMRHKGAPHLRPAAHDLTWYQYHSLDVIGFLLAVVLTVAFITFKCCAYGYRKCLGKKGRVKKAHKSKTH

[2] = molecular target: T2, UDP-glucuronosyltransferase 1A10 (Homo sapiens, UniProt Q9HAW8); assay: Inhibition of human recombinant UGT1A10 after 10 mins in presence of UDPGA
T2 sequence (Q9HAW8 whole entry): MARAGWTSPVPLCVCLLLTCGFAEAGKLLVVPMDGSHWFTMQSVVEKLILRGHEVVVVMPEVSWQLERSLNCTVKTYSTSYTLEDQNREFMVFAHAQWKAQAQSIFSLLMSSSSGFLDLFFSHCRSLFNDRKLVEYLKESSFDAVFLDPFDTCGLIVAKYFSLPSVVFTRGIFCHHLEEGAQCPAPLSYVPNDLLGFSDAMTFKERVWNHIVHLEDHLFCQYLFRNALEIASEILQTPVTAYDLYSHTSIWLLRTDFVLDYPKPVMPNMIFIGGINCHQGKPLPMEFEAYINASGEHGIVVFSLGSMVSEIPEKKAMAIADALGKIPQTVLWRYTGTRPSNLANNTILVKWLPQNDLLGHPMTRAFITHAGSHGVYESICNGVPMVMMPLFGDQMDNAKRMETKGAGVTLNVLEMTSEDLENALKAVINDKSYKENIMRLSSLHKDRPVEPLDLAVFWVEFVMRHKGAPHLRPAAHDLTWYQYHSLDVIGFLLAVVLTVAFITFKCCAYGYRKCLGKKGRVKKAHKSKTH

[3] = molecular target: T1, UDP-glucuronosyltransferase 1A9; assay: Activity of human recombinant UGT1A9 expressed in baculovirus-infected insect cells assessed as unbound intrinsic clearance for enzyme-mediated glucuronidation per mg of protein after 5 mins by Michaelis-Menten plot analysis in presence of UDPGA and absence of fatty acid free BSA
[4] = molecular target: T2, UDP-glucuronosyltransferase 1A10; assay: Activity of recombinant human UGT1A10 expressed in baculovirus-infected insect cells assessed as enzyme-mediated glucuronidation per mg of protein after 10 mins in presence of UDPGA
[5] = Drug metabolism in human liver microsomes assessed as glucuronidation after 10 mins by Michaelis-Menten plot analysis in presence of UDPGA and 2% fatty acid free BSA; details: read-out: Km(unbound)
[6] = Fraction unbound in human liver microsomes at 1 to 250 uM after 10 mins by ultrafiltration method in presence of 0.5% fatty acid free BSA
[7] = molecular target: T3, UDP-glucuronosyltransferase 1A3 (Homo sapiens, UniProt P35503); assay: Activity of human recombinant UGT1A3 expressed in baculovirus-infected insect cells assessed as enzyme-mediated glucuronidation per mg of protein after 10 mins in presence of UDPGA
T3 sequence (P35503 whole entry): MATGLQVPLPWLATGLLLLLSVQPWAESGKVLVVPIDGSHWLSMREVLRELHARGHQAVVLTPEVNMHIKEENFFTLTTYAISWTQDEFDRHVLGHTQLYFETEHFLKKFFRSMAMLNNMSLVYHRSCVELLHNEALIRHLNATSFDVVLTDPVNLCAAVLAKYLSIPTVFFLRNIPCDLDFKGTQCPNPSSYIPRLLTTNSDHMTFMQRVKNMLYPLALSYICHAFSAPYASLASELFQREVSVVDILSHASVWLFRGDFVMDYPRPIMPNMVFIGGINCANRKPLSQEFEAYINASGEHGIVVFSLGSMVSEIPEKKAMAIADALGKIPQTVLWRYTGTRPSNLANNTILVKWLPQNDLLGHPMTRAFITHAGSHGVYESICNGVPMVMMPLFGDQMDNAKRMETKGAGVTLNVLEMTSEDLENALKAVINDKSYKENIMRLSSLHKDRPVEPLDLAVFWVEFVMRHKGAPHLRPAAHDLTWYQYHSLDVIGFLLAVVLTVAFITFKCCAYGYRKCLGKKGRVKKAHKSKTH

[8] = molecular target: T4, UDP-glucuronosyltransferase 2B4 (Homo sapiens, UniProt P06133); assay: Activity of human recombinant UGT2B4 expressed in baculovirus-infected insect cells assessed as enzyme-mediated glucuronidation per mg of protein after 10 mins in presence of UDPGA
T4 sequence (P06133 whole entry): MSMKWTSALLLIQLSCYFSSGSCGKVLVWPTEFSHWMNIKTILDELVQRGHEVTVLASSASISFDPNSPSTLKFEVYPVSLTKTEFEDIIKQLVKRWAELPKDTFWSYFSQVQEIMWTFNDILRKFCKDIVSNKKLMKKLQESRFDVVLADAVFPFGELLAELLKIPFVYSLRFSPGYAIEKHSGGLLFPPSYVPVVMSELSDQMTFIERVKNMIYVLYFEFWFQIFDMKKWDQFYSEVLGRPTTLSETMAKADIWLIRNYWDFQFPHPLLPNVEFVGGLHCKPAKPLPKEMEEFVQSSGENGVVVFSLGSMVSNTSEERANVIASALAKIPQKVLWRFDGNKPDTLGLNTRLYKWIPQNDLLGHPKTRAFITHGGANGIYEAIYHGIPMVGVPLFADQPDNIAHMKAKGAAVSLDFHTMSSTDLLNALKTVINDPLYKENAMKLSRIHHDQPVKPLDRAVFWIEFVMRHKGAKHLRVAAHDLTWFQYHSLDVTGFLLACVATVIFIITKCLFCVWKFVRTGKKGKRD

Q: What does the source list for `COc1ccc(C(=O)Nc2cccc(O)c2NC(=O)c2ccc(N3CCCN(C)CC3)cc2)cc1.O=C(O)CCC(=O)O`?
A: CL free [1]: 316 µL/min/mg; Ki [2]: 235 µM; CL free [3]: 138 µL/min/mg; Drug metabolism [4]: 0.516 nmol/min/mg; Km at 10 min [5]: 17.6 µM; fraction unbound at 10 min, up to 250 µM [6]: 0.517; Drug metabolism [7]: < 0.01 nmol/min/mg; Drug metabolism [8]: < 0.01 nmol/min/mg
